Results on two molecules are retold here after patent US7595156B2 (priority 2003, dated 2009).

One test has as its system mosquito larva. The settings on record: background statement, Liang and Zhou 1987; cited from earlier work.
For test [1] the following is noted: background statement, Liang and Zhou 1987; cited from earlier work.
Another test concerns Saccharomyces cerevisiae. Kind of test: Antifungal activity test, growth inhibition zones. It counts as cell-based. The settings on record: activity of the CS101 and CS102 culture mediums attributed to the variants produced in the mutant strains; FIG. 7. Here is the method: FR-008 mutant strains CS101 and CS102 were added (see, FIG. 7). In FIG. 7, the left turbid zone is a zone added with Streptomyces sp. FR-008, the middle is a zone added with the mutant strain CS101, and the right is a zone added with the mutant strain CS102. […] This is caused by the polyketide variants V, VI, VIII, IX, X, XI and XII, which are produced in the mutant strains.

In the case of `C[C@H](C[C@H](C)[C@@H]1OC(=O)CC(=O)CCCC(=O)C[C@@H](O)C[C@@H](O)C[C@@H](O)C[C@]2(O)C[C@H](O)[C@H](C(=O)O)[C@H](C[C@H](O[C@@H]3O[C@@H](C)[C@H](O)[C@@H](N)[C@H]3O)/C=C/C=C/C=C/C=C/C=C/C=C/C=C/[C@@H]1C)O2)[C@H](O)CC(=O)c1ccc(N)cc1` [FR-008 polyketide], the “toxicity against mosquito larva” value in the test on mosquito larva is on record as “high toxicity”. For the same molecule, the antifungal activity entry in test [1] was “antifungal activity”.
`C[C@H](C[C@H](C)[C@@H]1OC(=O)CC(=O)CCCC(=O)CCC[C@@H](O)C[C@@H](O)CC(=O)C[C@H](O)[C@H](C(=O)O)[C@@H](O)C[C@H](O[C@@H]2O[C@@H](C)[C@H](O)C(=O)[C@H]2O)/C=C/C=C/C=C/C=C/C=C/C=C/C=C/[C@@H]1C)[C@H](O)CC(=O)c1ccc(N)cc1` [polyketide XII]: in the test with Saccharomyces cerevisiae, the “antifungal activity of polyketide variants” value is on record as “antifungal activity”.
